Biological target: T1, mouse TAAR1 (Mus musculus, UniProt Q923Y8)
T1 construct: expressed in transfected cells; host or cells: HEK293 (ATCC # CRL-1573), stably transfected with pIRESneo2 expression plasmid
Assay: Radioligand binding on membranes of HEK293 cells stably expressing TAAR1, [3H]-rac-2-(1,2,3,4-tetrahydro-1-naphthyl)-2-imidazoline
Conditions: for Ki: mouse TAAR1, radioligand at 60 nM, 4° C., 30 min incubation
Method: For the construction of expression plasmids the coding sequences of human, rat and mouse TAAR 1 were amplified from genomic DNA essentially as described by Lindemann et al.. The Expand High Fidelity PCR System (Roche Diagnostics) was used with 1.5 mM Mg^2+ and purified PCR products were cloned into pCR2.1-TOPO cloning vector (Invitrogen) following the instructions of the manufacturer. PCR products were subcloned into the pIRESneo2 vector (BD Clontech, Palo Alto, Calif.), and expression vectors were sequence verified before introduction in cell lines.
HEK293 cells (ATCC # CRL-1573) were cultured essentially as described Lindemann et al. (2005). For the generation of stably transfected cell lines HEK293 cells were transfected with the pIRESneo2 expression plasmids containing the TAAR coding sequences (described above) with Lipofectamine 2000 (Invitrogen) according to the instructions of the manufacturer, and 24 hrs post transfection the culture medium was supplemented with 1 mg/ml G418 (Sigma, Buchs, Switzerland). After a culture period of about 10 d clones were isolated, expanded and tested for responsiveness to trace amines (all compounds purchased from Sigma) with the cAMP Biotrak Enzyme immunoassay (EIA) System (Amersham) following the non-acetylation EIA procedure provided by the manufacturer.
Cells at confluence were rinsed with ice-cold phosphate buffered saline without Ca^2+ and Mg^2+ containing 10 mM EDTA and pelleted by centrifugation at 1000 rpm for 5 min at 4° C. The pellet was then washed twice with ice-cold phosphate buffered saline and cell pellet was frozen immediately by immersion in liquid nitrogen and stored until use at −80° C. Cell pellet was then suspended in 20 ml HEPES—NaOH (20 mM), pH 7.4 containing 10 mM EDTA, and homogenized with a Polytron (PT 3000, Kinematica) at 10,000 rpm for 10 s. The homogenate was centrifuged at 48,000×g for 30 min at 4° C. and the pellet resuspended in 20 ml HEPES—NaOH (20 mM), pH 7.4 containing 0.1 mM EDTA (buffer A), and homogenized with a Polytron at 10,000 rpm for 10 s. The homogenate was then centrifuged at 48,000×g for 30 min at 4° C. and the pellet resuspended in 20 ml buffer A, and homogenized with a Polytron at 10,000 rpm for 10 s. Protein concentration was determined by the method of Pierce (Rockford, Ill.). The homogenate was then centrifuged at 48,000×g for 10 min at 4° C., resuspended in HEPES—NaOH (20 mM), pH 7.0 including MgCl2 (10 mM) and […] homogenized with a Polytron at 10,000 rpm for 10 s.
Binding assay was performed at 4° C. in a final volume of 1 ml, and with an incubation time of 30 min. The radioligand [^3H]-rac-2-(1,2,3,4-tetrahydro-1-naphthyl)-2-imidazoline was used at a concentration equal to the calculated Kd value of 60 nM to give a bound at around 0.1% of the total added radioligand concentration, and a specific binding which represented approximately 70-80% of the total binding. Non-specific binding was defined as the amount of [^3H]-rac-2-(1,2,3,4-tetrahydro-1-naphthyl)-2-imidazoline bound in the presence of the appropriate unlabelled ligand (10 μM). Competing ligands were tested in a wide range of concentrations (10 pM-30 μM). […] Each experiment was performed in duplicate. All incubations were terminated by rapid filtration through UniFilter-96 plates (Packard Instrument Company) and glass filter GF/C, pre-soaked for at least 2 h in polyethylenimine 0.3%, and using a Filtermate 96 Cell Harvester (Packard Instrument Company). The tubes and filters were then washed 3 times with 1 ml aliquots of cold buffer B. Filters were not dried and soaked in Ultima gold (45 μl/well, Packard Instrument Company) and bound radioactivity was counted by a TopCount Microplate Scintillation Counter (Packard Instrument Company).

T1 sequence (Q923Y8 whole entry): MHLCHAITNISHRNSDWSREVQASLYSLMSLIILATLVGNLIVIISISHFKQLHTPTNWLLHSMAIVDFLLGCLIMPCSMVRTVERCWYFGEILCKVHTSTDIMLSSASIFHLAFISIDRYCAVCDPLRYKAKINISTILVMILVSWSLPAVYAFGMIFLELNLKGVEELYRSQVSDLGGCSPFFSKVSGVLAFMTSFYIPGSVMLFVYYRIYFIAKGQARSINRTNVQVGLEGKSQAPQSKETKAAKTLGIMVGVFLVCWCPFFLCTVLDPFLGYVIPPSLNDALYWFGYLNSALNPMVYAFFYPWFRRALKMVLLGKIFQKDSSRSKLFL

Compound | Ki [µM] | Kd (radioligand used in the TAAR1 binding assay, TAAR1 species not given, read-out: calculated Kd value of the radioligand) [nM]
Cc1cccc(C)c1N=C1NCCN1 [Example 2, (4,5-Dihydro-1H-imidazol-2-yl)-(2,6-dimethyl-phenyl)-amine or tautomer] | 0.149 | –
c1cc2c(c(NC3=NCCN3)c1)CCCC2 [Example 15, (4,5-Dihydro-1H-imidazol-2-yl)-(5,6,7,8-tetrahydro-naphthalen-1-yl)-amine or tautomer] | 0.039 | –
c1ccc2c(c1)CCCC2C1=NCCN1 (racemic) [[^3H]-rac-2-(1,2,3,4-tetrahydro-1-naphthyl)-2-imidazoline, reference compound] | – | 60
Cc1ccc(Cl)cc1N=C1NCCN1 [Example 9, (5-Chloro-2-methyl-phenyl)-imidazolidin-2-ylidene-amine or tautomer] | 0.225 | –
O=C(CCc1ccc(NC2=NCCN2)cc1)c1ccc2ccccc2c1 [Example 11, 3-[4-(4,5-Dihydro-1H-imidazol-2-ylamino)-phenyl]-1-naphthalen-2-yl-propan-1-one ortautomer] | 0.121 | –
Cc1cccc(C(C)C)c1NC1=NCCN1 [Example 8, (4,5-Dihydro-1H-imidazol-2-yl)-(2-isopropyl-6-methyl-phenyl)-amine or tautomer] | 0.476 | –
Brc1cccc(Br)c1N=C1NCCN1 [Example 6, (2,6-Dibromo-phenyl)-imidazolidin-2-ylidene-amine or tautomer] | 0.501 | –
c1ccc2c(N=C3NCCN3)cccc2c1 [Example 14, Imidazolidin-2-ylidene-naphthalen-1-yl-amineor tautomer] | 0.036 | –
Clc1cccc(Cl)c1SC1=NCCN1 [Example 18, 2-(2,6-Dichloro-phenylsulfanyl)-4,5-dihydro-1H-imidazole] | 0.03 | –
CCc1cccc(C)c1NC1=NCCN1 [Example 7, (4,5-Dihydro-1H-imidazol-2-yl)-(2-ethyl-6-methyl-phenyl)-amine or tautomer] | 0.169 | –
CCc1cccc(CC)c1NC1=NCCN1 [Example 3, (2,6-Diethyl-phenyl)-(4,5-dihydro-1H-imidazol-2-yl)-amine or tautomer] | 0.026 | –
Cc1csc(Cl)c1NC1=NCCN1 [Example 16, (2-Chloro-4-methyl-thiophen-3-yl)-(4,5-dihydro-1H-imidazol-2-yl)-amine or tautomer] | 0.294 | –

From US20070197569A1, “Method for treating central nervous system disorders with substituted 2-imidazoline derivatives” (priority 2006, published 2007)
